Assays:
Assay type in all cases: biochemical
[1] = molecular target: T1, Mycobacterium marinum carboxylate reductase (SEQ ID NO: 2), enhanced by the gene product of sfp (Mycobacterium marinum, UniProt B2HN69); test: carboxylate reductase enzyme activity assay, NADPH consumption at 340 nm; settings: SEQ ID NO 2 with sfp; 2 mM substrate, 10 mM MgCl2, 1 mM ATP, 1 mM NADPH, pH 7.5, room temperature, 20 min; absorbance at 340 nm
T1 construct: His-tag (N); made in house; host or cells: E. coli BL21[DE3], pET Duet
T1 sequence (B2HN69 whole entry): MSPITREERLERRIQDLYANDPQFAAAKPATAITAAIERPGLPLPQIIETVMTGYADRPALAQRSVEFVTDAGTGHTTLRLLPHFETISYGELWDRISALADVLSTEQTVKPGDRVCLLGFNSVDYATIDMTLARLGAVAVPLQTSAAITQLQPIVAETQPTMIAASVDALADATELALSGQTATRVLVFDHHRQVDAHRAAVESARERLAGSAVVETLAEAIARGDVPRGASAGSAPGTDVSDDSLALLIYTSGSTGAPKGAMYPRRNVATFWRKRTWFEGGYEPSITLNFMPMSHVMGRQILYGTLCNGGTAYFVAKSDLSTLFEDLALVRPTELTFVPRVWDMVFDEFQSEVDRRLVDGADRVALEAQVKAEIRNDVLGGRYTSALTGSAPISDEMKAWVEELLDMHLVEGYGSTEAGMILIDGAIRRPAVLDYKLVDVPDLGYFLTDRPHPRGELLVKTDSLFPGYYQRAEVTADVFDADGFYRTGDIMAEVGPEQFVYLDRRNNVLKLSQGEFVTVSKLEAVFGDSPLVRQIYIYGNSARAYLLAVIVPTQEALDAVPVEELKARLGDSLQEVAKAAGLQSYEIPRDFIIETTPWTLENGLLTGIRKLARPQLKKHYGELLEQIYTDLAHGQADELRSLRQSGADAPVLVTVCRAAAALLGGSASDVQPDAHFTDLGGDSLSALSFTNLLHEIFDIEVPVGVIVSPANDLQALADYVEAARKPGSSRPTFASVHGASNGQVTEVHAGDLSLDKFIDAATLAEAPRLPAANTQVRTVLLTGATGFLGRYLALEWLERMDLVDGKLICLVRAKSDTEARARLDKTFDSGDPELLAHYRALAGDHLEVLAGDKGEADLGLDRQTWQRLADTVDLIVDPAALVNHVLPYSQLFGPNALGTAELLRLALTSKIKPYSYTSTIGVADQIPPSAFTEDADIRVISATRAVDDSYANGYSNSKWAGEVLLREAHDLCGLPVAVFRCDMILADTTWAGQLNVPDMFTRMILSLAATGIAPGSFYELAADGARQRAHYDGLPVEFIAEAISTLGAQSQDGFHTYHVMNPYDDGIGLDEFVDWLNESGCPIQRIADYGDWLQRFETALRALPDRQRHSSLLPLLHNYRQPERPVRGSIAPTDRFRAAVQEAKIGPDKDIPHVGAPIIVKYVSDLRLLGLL
Method: (§1) A nucleotide sequence encoding a His-tag was added to the genes from Mycobacterium marinum, Mycobacterium smegmatis, Segniliparus rugosus, Mycobacterium massiliense, and Segniliparus rotundus that encode the carboxylate reductases of SEQ ID NOs: 2-4, 6 and 7, respectively (GenBank Accession Nos. ACC40567.1, ABK71854.1, EFV11917.1, EIV11143.1, and ADG98140.1, respectively) (see FIG. 10) such that N-terminal HIS tagged carboxylate reductases could be produced. Each of the modified genes was cloned into a pET Duet expression vector alongside a sfp gene encoding a His-tagged phosphopantetheine transferase from Bacillus subtilis, both under control of the T7 promoter. Each expression vector was transformed into a BL21[DE3] E. coli host along with the expression vectors from Example 3. Each resulting recombinant E. coli strain was cultivated at 37° C. in a 250 mL shake flask culture containing 50 mL LB media and antibiotic selection pressure, with shaking at 230 rpm. Each culture was induced overnight at 37° C. using an auto-induction media.
(§2) The pellet from each induced shake flask culture was harvested via centrifugation. Each pellet was resuspended and lysed via sonication. The cell debris was separated from the supernatant via centrifugation. The carboxylate reductases and phosphopantetheine transferase were purified from the supernatant using Ni-affinity chromatography, diluted 10-fold into 50 mM HEPES buffer (pH=7.5) and concentrated via ultrafiltration.
(§3) Enzyme activity (i.e., 5-hydroxypentanoate to 5-hydroxypentanal) assays were performed in triplicate in a buffer composed of a final concentration of 50 mM HEPES buffer (pH=7.5), 2 mM 5-hydroxypentanal, 10 mM MgCl2, 1 mM ATP, and 1 mM NADPH. Each enzyme activity assay reaction was initiated by adding purified carboxylate reductase and phosphopantetheine transferase or the empty vector control to the assay buffer containing the 5-hydroxypentanoate and then incubated at room temperature for 20 min. The consumption of NADPH was monitored by absorbance at 340 nm.
(§4) The N-terminal His-tagged carboxylate reductase of SEQ ID NO 2-4 and 7 (see Example 2 and FIG. 10) was assayed using glutarate methyl ester as substrate. The enzyme activity assay was performed in triplicate in a buffer composed of a final concentration of 50 mM HEPES buffer (pH=7.5), 2 mM glutarate methyl ester, 10 mM MgCl2, 1 mM ATP and 1 mM NADPH. The enzyme activity assay reaction was initiated by adding purified carboxylate reductase and phosphopantetheine transferase or the empty vector control to the assay buffer containing the glutarate semialdehyde and then incubated at room temperature for 20 min. The consumption of NADPH was monitored by absorbance at 340 nm.

[2] = test system: Mycobacterium smegmatis carboxylate reductase (SEQ ID NO: 3), enhanced by the gene product of sfp; test: as above; settings: SEQ ID NO 3 with sfp; 2 mM substrate, 10 mM MgCl2, 1 mM ATP, 1 mM NADPH, pH 7.5, room temperature, 20 min; absorbance at 340 nm
Method: as §1, §2, §3, §4

[3] = test system: Segniliparus rugosus carboxylate reductase (SEQ ID NO: 4), enhanced by the gene product of sfp; test: as above; settings: SEQ ID NO 4 with sfp; 2 mM substrate, 10 mM MgCl2, 1 mM ATP, 1 mM NADPH, pH 7.5, room temperature, 20 min; absorbance at 340 nm
Method: as §1, §2, §3, §4

[4] = test system: Mycobacterium massiliense carboxylate reductase (SEQ ID NO: 6), enhanced by the gene product of sfp; test: as above; settings: SEQ ID NO 6 with sfp; 2 mM substrate, 10 mM MgCl2, 1 mM ATP, 1 mM NADPH, pH 7.5, room temperature, 20 min; absorbance at 340 nm
Method: as §1, with “media. […]” for “media.”
(§5) Enzyme activity (i.e., 5-hydroxypentanoate to 5-hydroxypentanal) assays were performed in triplicate in a buffer composed of a final concentration of 50 mM HEPES buffer (pH=7.5), 2 mM 5-hydroxypentanal, 10 mM MgCl2, 1 mM ATP, and 1 mM NADPH. […] The consumption of NADPH was monitored by absorbance at 340 nm.

[5] = test system: Segniliparus rotundus carboxylate reductase (SEQ ID NO: 7), enhanced by the gene product of sfp; test: as above; settings: SEQ ID NO 7 with sfp; 2 mM substrate, 10 mM MgCl2, 1 mM ATP, 1 mM NADPH, pH 7.5, room temperature, 20 min; absorbance at 340 nm
Method: as §1
The pellet from each induced shake flask culture was harvested via centrifugation. Each pellet was resuspended and lysed via sonication. The cell debris was separated from the supernatant via centrifugation. […]
as §5
The N-terminal His-tagged carboxylate reductase of SEQ ID NO 7 (see Example 2 and FIG. 10) was assayed using glutarate semialdehyde as substrate. […] The consumption of NADPH was monitored by absorbance at 340 nm.
The N-terminal His-tagged carboxylate reductase of SEQ ID NO 2-4 and 7 (see Example 2 and FIG. 10) was assayed using glutarate methyl ester as substrate. […] The consumption of NADPH was monitored by absorbance at 340 nm.

[6] = molecular target: T2, Escherichia coli pimeloyl-[acp] methyl ester methylesterase (SEQ ID NO: 1) (Escherichia coli, UniProt P13001); test: pimeloyl-[acp] methyl ester methylesterase enzyme activity assay, glutaryl-CoA formation by LC-MS; settings: SEQ ID NO 1, 10 μM enzyme; 5 mM glutaryl-CoA methyl ester, 25 mM Tris.HCl pH 7.0, 30° C., 1 h
T2 construct: His-tag (C); made in house; host or cells: E. coli BL21[DE3], pET28b+
T2 sequence (P13001 whole entry): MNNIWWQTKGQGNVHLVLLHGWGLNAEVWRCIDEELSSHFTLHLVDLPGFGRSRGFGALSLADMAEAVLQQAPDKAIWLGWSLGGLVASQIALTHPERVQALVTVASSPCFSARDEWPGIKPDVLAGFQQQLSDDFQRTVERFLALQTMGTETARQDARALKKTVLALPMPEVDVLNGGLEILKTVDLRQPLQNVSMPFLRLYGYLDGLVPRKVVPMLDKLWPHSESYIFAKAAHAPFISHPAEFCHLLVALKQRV
Method: A sequence encoding an C-terminal His-tag was added to the gene from Escherichia coli encoding the pimeloyl-[acp] methyl ester methylesterase of SEQ ID NO: 1 (see FIG. 10) such that C-terminal HIS tagged pimeloyl-[acp] methyl ester methylesterase could be produced. The resulting modified gene was cloned into a pET28b+ expression vector under control of the T7 promoter and the expression vector was transformed into a BL21[DE3] E. coli host. The resulting recombinant E. coli strain was cultivated at 37° C. in a 500 mL shake flask culture containing 100 mL LB media and antibiotic selection pressure, with shaking at 230 rpm. Each culture was induced overnight at 18° C. using 0.3 mM IPTG.
The pellet from each induced shake flask culture was harvested via centrifugation. Each pellet was resuspended and lysed via sonication. The cell debris was separated from the supernatant via centrifugation. The pimeloyl-[acp] methyl ester methylesterase was purified from the supernatant using Ni-affinity chromatography, buffer exchanged and concentrated into 20 mM HEPES buffer (pH=7.5) via ultrafiltration and stored at 4° C.
Enzyme activity assays converting glutaryl-CoA methyl ester to glutaryl-CoA were performed in triplicate in a buffer composed of a final concentration of 25 mM Tris.HCl buffer (pH=7.0) and 5 [mM] glutaryl-CoA methyl ester. […] The formation of glutaryl-CoA was quantified via LC-MS.

O=C(O)CCCCO [5-hydroxypentanoate]
accepted: accepted as substrate as confirmed against the empty vector control [1] | accepted as substrate as confirmed against the empty vector control [2] | accepted as substrate as confirmed against the empty vector control [3] | accepted as substrate as confirmed against the empty vector control [4] | accepted as substrate as confirmed against the empty vector control [5]

COC(=O)CCCC(=O)SCCNC(=O)CCNC(=O)C(O)C(C)(C)COP(=O)(O)OP(=O)(O)OCC1OC(n2cnc3c(N)ncnc32)C(O)C1OP(=O)(O)O (stereo not drawn) [glutaryl-CoA methyl ester]
accepted: accepted as substrate, glutaryl-CoA synthesized as reaction product as confirmed via LC-MS [6]

Reference: patent US9920339B2, “Methods, reagents and cells for biosynthesizing compounds” (INVISTA North America S.á r.l., priority 2014, dated 2018)
